Assay results: ChEMBL document CHEMBL5150062, “Computational design, synthesis and biological evaluation of PDE5 inhibitors based on N2,N4-diaminoquinazoline and N2,N6-diaminopurine scaffolds” (Bioorg Med Chem, 2022)
Converted amounts (≈) assume the structure as drawn.

How the values were obtained:
[1] = target: T1, cGMP-specific 3',5'-cyclic phosphodiesterase (Homo sapiens, UniProt O76074); test: Inhibition of human PDE5 using [3H]cGMP as substrate at 1 uM incubated for 10 mins by liquid scintillation counter analysis relative to control
[2] = target: T1, cGMP-specific 3',5'-cyclic phosphodiesterase; test: Inhibition of human PDE5 using [3H]cGMP as substrate incubated for 10 mins by liquid scintillation counter analysis
Bos taurus = organism: Bos taurus; test: Inhibition of bovine heart PDE1 using [3H]cGMP as substrate at 10 uM incubated for 10 mins by liquid scintillation counter analysis relative to control
[3] = Aqueous solubility of the compound in pH 7.4 PBS measured after 7 hrs by HPLC-UV analysis; format: physicochemical; conditions: for solubility at 7 h: PBS, pH 7.4
[4] = 1-Octanol/PBS partition coefficient, logD of the compound at pH 7.4 incubated for 7 hrs by shake flask technique based HPLC-UV analysis; format: physicochemical
[5] = Inhibition of bovine heart PDE1 using [3H]cGMP as substrate incubated for 10 mins by liquid scintillation counter analysis; parameters: species or system Bos taurus
[6] = Selectivity index, ratio of IC50 for inhibition of bovine heart PDE1to IC50 for inhibition of human PDE5

| Structure (SMILES) | inhibition [1] [%] | IC50 [2] [nM] | further results |
| --- | --- | --- | --- |
| CC(C)CNc1nc(Nc2ccc(S(=O)(=O)N3CCN(C)CC3)cc2)nc2c1ncn2C | 96 | 28500 | – |
| Cn1cnc2c(NCc3ccccc3)nc(Nc3cccc(S(N)(=O)=O)c3)nc21 | 86.1 | 4460 | – |
| Cn1cnc2c(NCc3ccccc3)nc(Nc3ccc(S(N)(=O)=O)cc3)nc21 | 96.5 | 23000 | – |
| CN1CCN(S(=O)(=O)c2cccc(Nc3nc(NCc4ccccc4)c4ccccc4n3)c2)CC1 | 98.3 | 500 | – |
| CC(C)N1CCC(Nc2nc(Nc3cccc(S(N)(=O)=O)c3)nc3ccccc23)CC1 | 96.3 | 1030 | – |
| CC(C)CNc1nc(Nc2cccc(S(=O)(=O)N3CCN(C)CC3)c2)nc2ccccc12 | 97.3 | 430 | inhibition (Bos taurus): 67.2%; solubility at 7 h [3]: 0.6 µg/mL (≈ 1.32 µM); logD at 7 h [4]: 3.55 |
| CC(C)CNc1nc(Nc2cccc(S(=O)(=O)N3CCN(C)CC3)c2)nc2c1ncn2C | 91.8 | 33300 | – |
| CCCc1nn(C)c2c(=O)[nH]c(-c3cc(S(=O)(=O)N4CCN(C)CC4)ccc3OCC)nc12 | – | – | solubility ([3]; buffer, pH 7.4, 7 h): 180 µg/mL (≈ 379 µM); logD at 7 h [4]: 2.69 |
| NS(=O)(=O)c1cccc(Nc2nc(NC3CCN(Cc4ccccc4)CC3)c3nc[nH]c3n2)c1 | 94.3 | 290 | inhibition (Bos taurus): 31.2%; solubility at 7 h [3]: 150 µg/mL (≈ 313 µM); logD at 7 h [4]: 2.16 |
| COc1cc2nc(Nc3cccc(S(N)(=O)=O)c3)nc(NC3CCN(C(C)C)CC3)c2cc1OC | 79.3 | 3410 | – |
| COc1cc2nc(Nc3cccc(S(N)(=O)=O)c3)nc(NCC(C)C)c2cc1OC | 94.9 | 5230 | – |
| CC(C)N1CCC(Nc2nc(Nc3cccc(S(N)(=O)=O)c3)nc3[nH]cnc23)CC1 | 32.7 | – | – |
| CN(C)CCNc1nc(Nc2cccc(S(=O)(=O)N3CCN(C)CC3)c2)nc2ccccc12 | 75.3 | 5280 | – |
| CCCNc1nc(Nc2cccc(S(N)(=O)=O)c2)nc2cc(OC)c(OC)cc12 | 91.6 | 1440 | – |
| NS(=O)(=O)c1cccc(Nc2nc(NC3CCN(Cc4ccccc4)CC3)c3ccccc3n2)c1 | 93.4 | 220 | inhibition (Bos taurus): 61.7%; solubility at 7 h [3]: 4.2 µg/mL (≈ 8.6 µM); logD at 7 h [4]: 3.37 |
| CCCNc1nc(Nc2ccc(S(=O)(=O)N3CCN(C)CC3)cc2)nc2ccccc12 | 95.6 | 410 | inhibition (Bos taurus): 46.8%; solubility at 7 h [3]: 0.1 µg/mL (≈ 0.227 µM); logD at 7 h [4]: 3.92 |
| CCCNc1nc(Nc2ccc(S(=O)(=O)N3CCN(C)CC3)cc2)nc2c1ncn2C | 93.6 | 18900 | – |
| COc1cc2nc(Nc3cccc(S(=O)(=O)N4CCN(C)CC4)c3)nc(NC3CCN(C(C)C)CC3)c2cc1OC | 18.5 | – | – |
| CC(C)CNc1nc(Nc2ccc(S(=O)(=O)N3CCN(C)CC3)cc2)nc2ccccc12 | 99 | 360 | inhibition (Bos taurus): 44.8%; solubility at 7 h [3]: 3 µg/mL (≈ 6.6 µM); logD at 7 h [4]: 3.68 |

Second part, led by results:

| inhibition [1] [%] | IC50 [2] [nM] | Structure (SMILES) | further results |
| --- | --- | --- | --- |
| 96.9 | 600 | CCCNc1nc(Nc2cccc(S(=O)(=O)N3CCN(C)CC3)c2)nc2ccccc12 | – |
| 97.3 | 38400 | CN1CCN(S(=O)(=O)c2ccc(Nc3nc(NCc4ccccc4)c4ncn(C)c4n3)cc2)CC1 | – |
| 96.5 | 490 | CN1CCN(S(=O)(=O)c2ccc(Nc3nc(NCc4ccccc4)c4ccccc4n3)cc2)CC1 | – |
| 93.6 | 150 | CC(C)N1CCC(Nc2nc(Nc3cccc(S(=O)(=O)N4CCN(C)CC4)c3)nc3ccccc23)CC1 | inhibition (Bos taurus): 28.2%; solubility at 7 h [3]: 1770 µg/mL (≈ 3380 µM); logD at 7 h [4]: 2.15 |
| 72.2 | 9390 | CN(C)CCNc1nc(Nc2cccc(S(N)(=O)=O)c2)nc2ccccc12 | – |
| 101 | 100 | NS(=O)(=O)c1cccc(Nc2nc(NCc3ccccc3)c3ccccc3n2)c1 | inhibition (Bos taurus): 73.9%; IC50 [5]: 11800 nM; solubility at 7 h [3]: 2.1 µg/mL (≈ 5.18 µM); logD at 7 h [4]: 3.87; Ratio IC50 [6]: 100 |
| 93.7 | 1640 | COc1cc2nc(Nc3cccc(S(N)(=O)=O)c3)nc(NC3CCN(Cc4ccccc4)CC3)c2cc1OC | – |
| 99.3 | 2020 | CN1CCN(S(=O)(=O)c2cccc(Nc3nc(NCc4ccccc4)c4nc[nH]c4n3)c2)CC1 | – |
| 69 | – | CN1CCN(S(=O)(=O)c2cccc(Nc3nc(NCc4ccccc4)c4ncn(C)c4n3)c2)CC1 | – |
| 93.6 | 43200 | CCCNc1nc(Nc2cccc(S(=O)(=O)N3CCN(C)CC3)c2)nc2c1ncn2C | – |
| 93.9 | 520 | CN1CCN(S(=O)(=O)c2cccc(Nc3nc(NCc4cccs4)c4ccccc4n3)c2)CC1 | – |
| 94.6 | 3970 | COc1cc2nc(Nc3ccc(S(N)(=O)=O)cc3)nc(NCC(C)C)c2cc1OC | – |
